Read-outs that look alike come from different tables or passages of the source.
Tests used:
BVDV [1] = assay: Antiviral activity against BVDV by passaging virus in BT cells (CPE and viral titer); assay type: cell-based, bovine viral diarrhea virus; settings: for viral replication: after a single passage
Method: (§1) Cytotoxicity was assayed using graded amounts of nucleoside analog in CV-1 cells or BT cells. 100 pfu of virus was inoculated in 10^5 CV-1 cells (MV) or BT cells (BVDV). Antiviral activity against MV or BVDV (an HCV surrogate) was tested by passaging the virus in the presence or absence of analog.
(§2) In screening experiments, replication of MV or BVDV was assessed by cytopathic effect (CPE) and viral titer after growth in cells for three to four days in the presence or absence of drug. […] Experiments were performed in triplicate (see FIGS. 2 and 4).

CV-1 cells or BT cells = assay: Cytotoxicity with graded amounts of nucleoside analog; assay type: cell-based; settings: Cercopithecidae, cell line (CV-1 or BT) not specified
Method: as §1

BVDV [2] = assay: Sequencing of BVDV glycoprotein fragment for viral mutagenesis; assay type: cell-based, bovine viral diarrhea virus; settings: 2 mM, passage 1, BVDV glycoprotein fragment, vs DMSO control
Method: Fragment of 1 kb glycoprotein gene of clones BVDV at passage 1, BVDV treated with 2 mM 5-formyl-uridine vs. DMSO control.
(§3) For 5-formyl-uridine, sequencing was performed to confirm that viral extinction was due to viral mutagenesis by the nucleoside. Clones of MV were selected from treated and control virus at passage 4 and a 1 kb fragment of the matrix and a 1.7 kb fragment of the polymerase were sequenced. […] A fragment of the BVDV glycoprotein was also sequenced, in which the BVDV virus was treated with 2 mM 5-formyl-uridine.

measles virus (MV) [3] = assay: Antiviral activity against MV by passaging virus in CV-1 cells (CPE and viral titer); assay type: cell-based
Method: as §1, §2

measles virus (MV) [4] = assay: Sequencing of MV clones (matrix and polymerase fragments) for viral mutagenesis; assay type: cell-based; settings: 0.15 mM, passage 4, 1 kb matrix and 1.7 kb polymerase fragments, vs DMSO control
Method: Fragment of 1 kb of matrix gene and 1.7 kb of polymerase of cones MV at passage 4, MV treated with 0.15 mM 5-formyl uridine vs. DMSO control.
as §3

[5] = concentration of 0.5 mM, within one passage
[6] = Bovine viral diarrhea virus isolates and strains

In the case of `Nc1nc(N)c2ncn([C@@H]3O[C@H](CO)[C@@H](O)[C@H]3O)c2n1` [2,6 diaminopurine riboside], the viral replication (BVDV [1]; BVDV) is reported as “inhibited” and the EC50 (BVDV [1]; BVDV, read-out: EC50) is reported as 70 µM.
For `O=Cc1cn([C@@H]2O[C@H](CO)[C@@H](O)[C@H]2O)c(=O)[nH]c1=O` [5-formyl-uridine], the IC50 (CV-1 cells or BT cells) was > 1 mM, the increase in mutation (BVDV [2]) was 3.75 fold and the EC50 (measles virus (MV) [3]; Measles morbillivirus, CV-1) was 150 µM. The EC90 (measles virus (MV) [3]; Measles morbillivirus, CV-1) was 300 µM, the “inhibition of MV replication” value (measles virus (MV) [3]; [5]) was “completely inhibited” and the “mutation rate above the spontaneous mutation rate of MV” value (measles virus (MV) [4]) was 1.6 fold. The EC50 (BVDV [1]; [6]) was 150 µM, the EC90 (BVDV [1]; [6]) was 400 µM and the “inhibition of BVDV replication” value (BVDV [1]; [5]) was “completely inhibited”.
In the case of `Nc1[nH]c(=O)nc2c1ncn2[C@@H]1O[C@H](CO)[C@@H](O)[C@H]1O` [isoguanosine], the viral replication (BVDV [1]; BVDV) is reported as “inhibited” and the EC50 (BVDV [1]; [6]) is reported as 80 µM.

Reference: patent US7648967B2, “Mutagenic nucleoside analogs for the treatment of viral disease” (priority 2001, dated 2010)
